Tests used:
Myzus persicae [1] = test: Toxicity test on larval development on Ap3 feeding medium (larval mortality, weight of wingless adults); type: in vivo
Experimental: The goal is to quantify the toxic effect of 3,5-diCQ on the aphid throughout its larval development, namely 8 to 10 days for Myzus persicae at 19° C. The molecule is added at various concentrations to the Ap3 feeding medium.
(§1) The medium ([…]) is poured between two UV-sterilized Parafilm® membranes and drawn onto a cylindrical support made of PVC (h=1.5 cm, d=2 cm), under sterile conditions. On Day D0, 20 neonate larvae are placed inside the cylinder, which is then turned over and pressed onto a square of Parafilm®. The dishes are placed under dimmed light (16 hr day/8 hr night) and in an enclosure set at 19° C. The fixation percentage is recorded after 1 hour as a short-term phagostimulation indicator and in order to verify that no anomaly had occurred when the aphids were placed inside the cylinder. Larval mortality is noted daily at the end of the day. On Day D+3, the larvae are sampled and split up into two new dishes. On the day of their adult molt, the aphids that have reached the wingless adult stage are deposited successively onto a precision scale (d=0.01 mg) and the cumulative weights are recorded for each concentration of each tested molecule. Individual weights are calculated thereafter. The effects of a single molecule at all concentrations and the effects of the control medium are evaluated simultaneously during the same test. The tests are routinely performed in 3 repetitions.

Macrosiphum euphorbiae [2] = test: Selection test (phagorepulsive effect), first-stage larvae; type: in vivo; conditions: FIG. 23
Description: (§2) The goal is to evaluate the attractive or repulsive character of a candidate molecule, at various concentrations, either in relation to a control base medium or in relation to another substance. The base medium used, referred to as Ap3 (composition in the table in FIG. 10), was developed at the UMR INRA-INSA in Lyon in order to enable optimal development of the Acyrtosiphon pisum aphid species (Febvay et al. (1988) Canadian Journal of Zoology 66: 2149-2453). It also enables the development of Myzus persicae. This base medium may or may not be supplemented by the various phenolic acids tested. The aphid's selected behavior when placed in the presence of both media is studied inside a closed system where the insect has no alternative in order to feed itself but to select one of the two media. The device is shown in diagram form in FIG. 11.
(§3) The medium (35 μl) is poured between two Parafilm® membranes stretched onto an Eppendorf® cone. On a rack holding 6 experiment cages, a control medium is arranged opposite a test medium on each cage. […] The following morning, the number of aphids fixed on each medium is recorded. […] A phagostimulation index, representing the degree of desire for the aphid in the test medium, is calculated as follows: Phagostimulation index=(Test no.−Control no.)/Total no., wherein: […]

Acyrtosiphon pisum [3] = test: as above; type: in vivo, Acyrthosiphon pisum; conditions: FIG. 21
Description: as §2, §3

chewing insects = conditions: Tamura et al. 2004; Mullin et al. 1991; cited from earlier work
Macrosiphum euphorbiae [4] = test: Toxicity test during larval development; type: in vivo; conditions: FIG. 24
Experimental: as §1
(§4) Regarding the toxicity tests, no changes were made to the protocol for tests on Macrosiphum euphorbiae. However, given the size and sensitivity to stress of Acyrthosiphon pisum, the number of individuals per dish was changed to 10, the number of repetitions per tested dose was changed to 4, and no change was made to the medium during the test, as excessive disturbance of the aphids would have resulted from doing so.

Acyrtosiphon pisum [5] = test: Toxicity test during larval development; type: in vivo; conditions: FIG. 22
Experimental: as §1, §4

Myzus persicae [6] = test: Selection test between two media (phagostimulation index, repulsivity); type: in vivo; conditions: for concentration at which significantly repulsive: against Ap3 control medium; for concentration at which the repulsive effect (negative phagostimulation index) is significant: tested against Ap3 medium, lowest concentration tested 0.25 mM
Description: The method used is the one developed by Yvan Rahbé (Rahbé & Febvay (1993) Entomologia Experimentalis et Applicata 67: 149-160; Chen (1996) Thesis, Institut National des Sciences Appliquées, Lyon, France: 158 pp.) in the context of research on the chemical determinants of plant resistance to various aphid species (Aphis gossypii, Acyrthosiphon pisum), and adapted to the green peach aphid, Myzus persicae.
as §2
The medium (35 μl) is poured between two Parafilm® membranes stretched onto an Eppendorf® cone. On a rack holding 6 experiment cages, a control medium is arranged opposite a test medium on each cage. The repetitions of a single modality (control medium or test medium) are arranged in alternating fashion along the rack, in order to prevent any systematic bias when the aphids are placed inside. At the end of the day, six aphid larvae (second or third stage) are placed inside each of the cages of one rack. Next, the racks are inserted into a black box placed inside a climate-controlled test chamber at 19° C. for 15 hours. This passage into darkness stabilizes the larvae's fixation more quickly. The following morning, the number of aphids fixed on each medium is recorded. The tests are performed in routine fashion on 24 selection repetitions (4 racks with 6 cages each). A phagostimulation index, representing the degree of desire for the aphid in the test medium, is calculated as follows: Phagostimulation index=(Test no.−Control no.)/Total no., wherein:
Test no.=Number of aphids fixed on the test medium,
Control no.=Number of aphids fixed on the control medium,
Total no.=Total number of fixed aphids.
Consequently, the value of the index ranges from −1 to 1. A negative index means that the test medium is repulsive in relation to the control medium, and a positive index means that the test medium is attractive. The hypothesis that the effect of the test medium is identical to that of the control medium is examined by the Wilcoxon rank test.
The tested phenolic substances other than 3,5-diCQ are of commercial origin apart from the caffeic acid methyl ester, which was synthesized. The molecules were characterized by mass spectrometry and proton nuclear magnetic resonance. The amount and stability of the dissolved molecules are monitored by HPLC after the molecules are dissolved in the Ap3 medium, at the beginning and at the end of the experiment.

[7] = FIG. 15, range 0.03125 to 1 mM, against Ap3

In the case of `O=C(/C=C/c1ccc(O)c(O)c1)O[C@@H]1C[C@](OC(=O)/C=C/c2ccc(O)c(O)c2)(C(=O)O)C[C@@H](O)[C@H]1O` [1,5-diCQ, 1,5-dicaffeoylquinic acid], the “toxic effect on larval development (in words)” value (Myzus persicae [1]; in vivo) was “toxic activity”.

For `O=C(/C=C/c1ccc(O)c(O)c1)O[C@@H]1CC(O)(C(=O)O)C[C@@H](OC(=O)/C=C/c2ccc(O)c(O)c2)C1O` (stereo partly drawn) [3,5-diCQ, 3,5-dicaffeoylquinic acid], the “dose starting at which highly significant repulsive effect” value (Macrosiphum euphorbiae [2]) was 0.125 mM, the “toxic effect at 0.03125 mM (in words)” value (Myzus persicae [1]; 0.03125 mM) was “no toxic or repulsive effect” and the “reaching the wingless adult stage” value (Myzus persicae [1]; 1 and 2 mM concentrations) was “no aphids reached the wingless adult stage”. The larval mortality (Myzus persicae [1]; FIG. 16, at 2 mM) was about 100%, the “dose starting at which significant depressive effect on weight of wingless adults” value (Myzus persicae [1]; FIG. 17) was 0.25 mM and the “dose with significant depressive effect on weight of wingless adults” value (Myzus persicae [1]; FIG. 20) was 0.5 mM. For the same compound, the “toxic effect on larval development (in words)” value (Myzus persicae [1]; in vivo) was “high mortality”, the “toxic effect on larval development (in words)” value (Myzus persicae [1]; in vivo, listed as 3,5-dicaffeoylquinic acid) was “toxic activity” and the “dose starting at which significant repulsive effect” value (Acyrtosiphon pisum [3]) was 0.03125 mM. The “effect on feeding of chewing insects (in words)” value (chewing insects) was “phagostimulating effect”, the mortality (Macrosiphum euphorbiae [4]; 0.25 mM dose, within 6 days) was about 100% and the mortality (Macrosiphum euphorbiae [4]; 0.5 and 1 mM doses, within 3 to 7 days) was 100%. The mortality (Acyrtosiphon pisum [5]; starting at 0.03125 mM, within 2 days) was “exceeds 50%”, the mortality (Acyrtosiphon pisum [5]; starting at 0.25 mM, within 4 days) was 100% and the “repulsive effect at 0.03125 mM (in words)” value (Myzus persicae [6]; 0.03125 mM) was “no toxic or repulsive effect”. For the same compound, the “concentration at which significantly repulsive” value (Myzus persicae [6]; FIG. 13) was 0.125 mM, the “choice between 3,5-diCQ and chlorogenic acid at a single molarity” value (Myzus persicae [6]; FIG. 13, tested against each other, at 0.125 mM) was “systematically selects CA rather than 3,5-diCQ” and the “repulsive effect of 0.5 mM versus chlorogenic acid at 2 mM” value (Myzus persicae [6]; FIG. 14, pH 7.5, CA four times higher) was “remains repulsive”. The “dose with highly significant repulsive effect” value (Myzus persicae [6]; [7]) was 0.125 mM, the “minimum concentration at which repulsive effect is detectable” value (Myzus persicae [6]; in vivo) was 125 µM and the “repulsive effect / activity (in words)” value (Myzus persicae [6]; in vivo) was “repulsive activity”. For the same compound, the “minimum concentration at which repulsive effect is detectable” value (Myzus persicae [6]; same value converted) was 64.5 mg/L.

With `O=C(/C=C/c1ccc(O)c(O)c1)O[C@H]1[C@H](O)C[C@](O)(C(=O)O)C[C@H]1OC(=O)/C=C/c1ccc(O)c(O)c1` [4,5-diCQ, 4,5-dicaffeoylquinic acid] the “dose with significant depressive effect on weight of wingless adults” value (Myzus persicae [1]; FIG. 20) was 0.25 mM, the “toxic effect on larval development (in words)” value (Myzus persicae [1]; in vivo) was “toxic activity” and the “dose starting at which significant repulsive effects were detected” value (Myzus persicae [6]; [7]) was 0.03125 mM. The “dose with highly significant repulsive effect” value (Myzus persicae [6]; [7]) was 0.125 mM and the “repulsive effect / activity (in words)” value (Myzus persicae [6]; in vivo) was “repulsive activity”.

For `O=C(O)/C=C/c1ccc(O)cc1` [Para-coumaric acid, para-coumaric acid, reference compound], the “repulsive effect (in words)” value (Myzus persicae [6]; FIG. 12, concentration range tested, against Ap3 medium) was “no repulsive effect”.

With `O=C(/C=C/c1ccc(O)c(O)c1)O[C@@H]1C[C@](O)(C(=O)O)C[C@@H](O)[C@H]1O` [chlorogenic acid, 5-caffeoylquinic acid, reference compound] the “effect on weight of wingless adults (in words)” value (Myzus persicae [1]; FIG. 18) was “probiotic effect”, the larval mortality (Myzus persicae [1]; in vivo) was at most 10% and the “toxic effect on larval development (in words)” value (Myzus persicae [1]; in vivo) was “no negative effects”. The “concentration at which the repulsive effect (negative phagostimulation index) is significant” value (Myzus persicae [6]; FIG. 12) was 0.5 mM and the “concentration at which significantly repulsive” value (Myzus persicae [6]; FIG. 13) was 0.25 mM.

For `O=C(/C=C/c1ccc(O)c(O)c1)O[C@@H]1C[C@@](OC(=O)/C=C/c2ccc(O)c(O)c2)(C(=O)O)C[C@@H](O)[C@@H]1O` [cynarin], the “effect on the aphids' weights (in words)” value (Myzus persicae [1]; FIG. 20, at the 0.25 mM dose) was “no effect” and the “concentration at which the repulsive effect (negative phagostimulation index) is significant” value (Myzus persicae [6]; FIG. 12) was 1 mM.

Source: US8921420B2, “Method for preparing dicaffeoylquinic acids and use thereof in combating aphids” (Institut National de la Recherche Agronomique, priority 2008, dated 2014)
